Reference: patent US8263389B2, “Perifusion device” (Biorep Technologies, Inc., priority 2007, dated 2012)
Where no end group is shown, it is not given here.

Columns and labels:
Islet cells = test: insulin release by perifusion of islet cells after oxygen deprivation, measured by ELISA; type: cell-based; conditions: 11 mM glucose, GLP-1 in addition to 11 mM glucose, KCl
Method: Islet cells were compromised by depriving them from the normal oxygen concentration for 0.5, 2, 6, and 12 hours. After that, these islets were incubated in the perifusion system and exposed to substances that stimulate insulin release such as 11 mM of glucose, GLP-1 in addition to 11 mM of glucose, and potassium chloride (KCl).

human islets = test: glucagon-insulin release from in vitro perifused human islets; type: cell-based; conditions: alpha cells of perifused human islets
Method: FIG. 22 illustrates glucagon-insulin release from in vitro perifused human islets. This experiment was conducted to show the usefulness of the perifusion system in drug screening. Insulin and glucagon are hormones secreted from the beta and alpha cells of the islets of Langerhans. […] In the same way, any other compound's ability to influence the health or alter the behavior of the pancreatic islets can be assayed using the perifusion system of the invention.

[1] = control batch, normal culture conditions without oxygen deprivation
[2] = islets after twelve hours of incubation with low oxygen

Molecule	insulin release response to stimulus (Islet cells; [1])	insulin release response to stimulus (Islet cells; [2])	glucagon release profile (human islets)
[Cl-].[K+] [KCl, potassium chloride]	prominent response	very small	
GLP-1 (HAEGTFTSDVSSYLEGQAAKEFIAWLVKGR; ends and bridges not checked; UniProt P01275 98-127, looked up)	prominent response	little or no response	
kainates			stimulated the alpha cells to produce glucagon
